Results published in PubChem BioAssay (NCI).
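Method: 48-hour compound exposure of cells in 96-well plates, five concentrations, linear interpolation of endpoints. The concentration for full growth arrest is given as TGI.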

Experiments:
Test in all cases: DTP human tumour cell line panel, 48 h
[1] = system: 786-0 renal
[2] = system: A498 renal
[3] = system: A549 NSCLC
[4] = system: ACHN renal
[5] = system: CAKI-1 renal
[6] = system: CCRF-CEM leukemia
[7] = system: DMS 114 small cell lung
[8] = system: DMS 273 small cell lung
[9] = system: EKVX NSCLC
[10] = system: HCC-2998 colon
[11] = system: HCT-116 colon
[12] = system: HCT-15 colon
[13] = system: HL-60(TB) leukemia
[14] = system: HOP-92 NSCLC
[15] = system: HT29 colon
[16] = system: IGROV1 ovarian
[17] = system: K-562 leukemia
[18] = system: KM20L2 colon
[19] = system: LOX IMVI melanoma
[20] = system: LXFL 529 NSCLC
[21] = system: M14 melanoma
[22] = system: M19-MEL melanoma
[23] = system: MALME-3M melanoma
[24] = system: MOLT-4 leukemia
[25] = system: NCI-H226 lung
[26] = system: NCI-H23 lung
[27] = system: NCI-H460 lung
[28] = system: OVCAR-3 ovarian
[29] = system: OVCAR-4 ovarian
[30] = system: OVCAR-5 ovarian
[31] = system: OVCAR-8 ovarian
[32] = system: RPMI-8226 leukemia
[33] = system: RXF 393 renal
[34] = system: RXF-631 renal
[35] = system: SF-268 CNS
[36] = system: SF-295 CNS
[37] = system: SF-539 CNS
[38] = system: SK-MEL-2 melanoma
[39] = system: SK-MEL-28 melanoma
[40] = system: SK-MEL-5 melanoma
[41] = system: SN12C renal
[42] = system: SNB-19 CNS
[43] = system: SNB-75 CNS
[44] = system: SNB-78 CNS
[45] = system: SR leukemia
[46] = system: SW-620 colon
[47] = system: TK-10 renal
[48] = system: U251 CNS
[49] = system: UACC-257 melanoma
[50] = system: UACC-62 melanoma
[51] = system: UO-31 renal
[52] = system: XF 498 CNS
[53] = system: COLO 205 colon
[54] = system: DLD-1 colon
[55] = system: HOP-18 NSCLC
[56] = system: HOP-62 NSCLC
[57] = system: KM12 colon
[58] = system: NCI-H522 lung
[59] = system: SK-OV-3 ovarian

COc1cc(C2C(C(=O)NCc3ccccc3)=C(C)NC(C)=C2C(=O)NCc2ccccc2)ccc1O
TGI [1]: > 100 µM | TGI [2]: > 100 µM | TGI [3]: > 100 µM | TGI [4]: > 100 µM | TGI [5]: 75.1 µM | TGI [6]: 98.3 µM | TGI [7]: > 100 µM | TGI [8]: > 100 µM | TGI [9]: > 100 µM | TGI [10]: 51.6 µM | TGI [11]: > 100 µM | TGI [12]: > 100 µM | TGI [13]: 66.5 µM | TGI [14]: 89.2 µM | TGI [15]: 38 µM | TGI [16]: > 100 µM | TGI [17]: > 100 µM | TGI [18]: > 100 µM | TGI [19]: > 100 µM | TGI [20]: > 100 µM | TGI [21]: > 100 µM | TGI [22]: > 100 µM | TGI [23]: > 100 µM | TGI [24]: 55.8 µM | TGI [25]: > 100 µM | TGI [26]: 90.5 µM | TGI [27]: > 100 µM | TGI [28]: > 100 µM | TGI [29]: > 100 µM | TGI [30]: > 100 µM | TGI [31]: > 100 µM | TGI [32]: 73.6 µM | TGI [33]: 77.8 µM | TGI [34]: > 100 µM | TGI [35]: > 100 µM | TGI [36]: > 100 µM | TGI [37]: 41 µM | TGI [38]: 61.2 µM | TGI [39]: > 100 µM | TGI [40]: > 100 µM | TGI [41]: > 100 µM | TGI [42]: > 100 µM | TGI [43]: > 100 µM | TGI [44]: > 100 µM | TGI [45]: 54.4 µM | TGI [46]: > 100 µM | TGI [47]: > 100 µM | TGI [48]: 83.2 µM | TGI [49]: > 100 µM | TGI [50]: > 100 µM | TGI [51]: > 100 µM | TGI [52]: > 100 µM

CN1CCS(=O)(=O)NC(Cc2ccccc2)C(=O)N2CCCC2C1=O (stereo not given)
TGI [1]: > 100 µM | TGI [2]: > 100 µM | TGI [3]: > 100 µM | TGI [4]: > 100 µM | TGI [5]: > 100 µM | TGI [6]: > 100 µM | TGI [53]: > 100 µM | TGI [54]: > 100 µM | TGI [7]: > 100 µM | TGI [8]: > 100 µM | TGI [9]: > 100 µM | TGI [10]: > 100 µM | TGI [11]: > 100 µM | TGI [12]: > 100 µM | TGI [13]: > 100 µM | TGI [55]: > 100 µM | TGI [56]: > 100 µM | TGI [15]: > 100 µM | TGI [16]: > 100 µM | TGI [17]: > 100 µM | TGI [57]: > 100 µM | TGI [18]: > 100 µM | TGI [19]: > 100 µM | TGI [20]: > 100 µM | TGI [22]: > 100 µM | TGI [23]: > 100 µM | TGI [24]: > 100 µM | TGI [25]: > 100 µM | TGI [26]: > 100 µM | TGI [58]: > 100 µM | TGI [28]: > 100 µM | TGI [29]: > 100 µM | TGI [30]: > 100 µM | TGI [31]: > 100 µM | TGI [32]: > 100 µM | TGI [35]: > 100 µM | TGI [36]: > 100 µM | TGI [37]: > 100 µM | TGI [38]: > 100 µM | TGI [39]: > 100 µM | TGI [40]: > 100 µM | TGI [59]: > 100 µM | TGI [41]: > 100 µM | TGI [42]: > 100 µM | TGI [43]: > 100 µM | TGI [44]: > 100 µM | TGI [46]: > 100 µM | TGI [47]: > 100 µM | TGI [48]: > 100 µM | TGI [49]: > 100 µM | TGI [50]: > 100 µM | TGI [51]: > 100 µM | TGI [52]: > 100 µM

N#Cc1ccc(C2OCC3CC=CCC3CO2)cc1 (stereo not given)
TGI [1]: > 100 µM | TGI [3]: > 100 µM | TGI [4]: > 100 µM | TGI [5]: > 100 µM | TGI [6]: > 100 µM | TGI [53]: > 100 µM | TGI [54]: > 100 µM | TGI [7]: > 100 µM | TGI [9]: > 100 µM | TGI [10]: > 100 µM | TGI [11]: > 100 µM | TGI [12]: > 100 µM | TGI [13]: 94.9 µM | TGI [55]: > 100 µM | TGI [56]: > 100 µM | TGI [15]: > 100 µM | TGI [16]: > 100 µM | TGI [17]: > 100 µM | TGI [57]: > 100 µM | TGI [18]: > 100 µM | TGI [19]: > 100 µM | TGI [20]: > 100 µM | TGI [21]: > 100 µM | TGI [22]: > 100 µM | TGI [23]: > 100 µM | TGI [24]: > 100 µM | TGI [25]: > 100 µM | TGI [26]: > 100 µM | TGI [27]: > 100 µM | TGI [58]: > 100 µM | TGI [28]: > 100 µM | TGI [29]: > 100 µM | TGI [30]: > 100 µM | TGI [31]: > 100 µM | TGI [32]: > 100 µM | TGI [33]: > 100 µM | TGI [34]: > 100 µM | TGI [35]: > 100 µM | TGI [36]: > 100 µM | TGI [37]: > 100 µM | TGI [38]: > 100 µM | TGI [39]: > 100 µM | TGI [40]: 49 µM | TGI [59]: > 100 µM | TGI [41]: > 100 µM | TGI [42]: > 100 µM | TGI [43]: > 100 µM | TGI [44]: > 100 µM | TGI [45]: > 100 µM | TGI [46]: > 100 µM | TGI [48]: > 100 µM | TGI [49]: > 100 µM | TGI [50]: > 100 µM | TGI [51]: > 100 µM | TGI [52]: > 100 µM

CCOC(=O)C(C(=O)OCC)c1cc(-c2cc3ccccc3o2)oc(=O)c1C#N
TGI [2]: 70.1 µM | TGI [3]: > 100 µM | TGI [4]: > 100 µM | TGI [5]: 38.1 µM | TGI [6]: > 100 µM | TGI [53]: 48.7 µM | TGI [7]: 67.1 µM | TGI [8]: 60.1 µM | TGI [9]: > 100 µM | TGI [10]: 46.9 µM | TGI [11]: 44.9 µM | TGI [12]: 35.7 µM | TGI [13]: 64.8 µM | TGI [55]: 65.4 µM | TGI [14]: 20.6 µM | TGI [15]: 35 µM | TGI [16]: 80 µM | TGI [17]: > 100 µM | TGI [57]: > 100 µM | TGI [18]: 37.5 µM | TGI [19]: 31.8 µM | TGI [20]: 41.8 µM | TGI [21]: 36.9 µM | TGI [23]: 55.7 µM | TGI [24]: 87.2 µM | TGI [25]: 41.9 µM | TGI [26]: 36.7 µM | TGI [27]: > 100 µM | TGI [29]: 71.4 µM | TGI [30]: 33.1 µM | TGI [31]: 49.1 µM | TGI [32]: > 100 µM | TGI [33]: 43.5 µM | TGI [35]: > 100 µM | TGI [36]: 48.2 µM | TGI [37]: 36.8 µM | TGI [38]: 38.2 µM | TGI [39]: 63.3 µM | TGI [40]: > 100 µM | TGI [41]: 62.9 µM | TGI [42]: > 100 µM | TGI [43]: 90.6 µM | TGI [44]: 73.4 µM | TGI [45]: 66.3 µM | TGI [46]: 52.6 µM | TGI [47]: 52.1 µM | TGI [48]: 30.6 µM | TGI [49]: 76.4 µM | TGI [51]: 90.3 µM | TGI [52]: 36.3 µM
